Measurements: patent US9156811B2 (priority 2008, dated 2015)

Assays:
[1] = biological target: T. brucei N-myristoyl transferase (Trypanosoma brucei brucei (strain 927/4 GUTat10.1), UniProt Q388H8); assay: biochemical; format: biochemical; conditions: value printed without enzyme tag in the NMT Enzyme column (taken as T. brucei NMT); read-out: IC50 (μM) NMT Enzyme
[2] = tested on: Trypanosome (T. brucei brucei); assay: In-vitro antitrypanosomal efficacy assay (cell growth, resazurin); format: cell-based; conditions: T. brucei cell growth
Procedure: To column 12, 200 μl media was added to provide a no cells control. Plates were then incubated at 37° C. in an atmosphere of 5% CO2 for 69 hours, before the addition of 20 μl of 500 μM rezasurin solution, and a further incubation period of 4 hours. […] Concentration effect curves were fitted using non-linear regression using XLFit 4.2 and EC50 values determined.

Chain of T. brucei N-myristoyl transferase (Q388H8 1-446): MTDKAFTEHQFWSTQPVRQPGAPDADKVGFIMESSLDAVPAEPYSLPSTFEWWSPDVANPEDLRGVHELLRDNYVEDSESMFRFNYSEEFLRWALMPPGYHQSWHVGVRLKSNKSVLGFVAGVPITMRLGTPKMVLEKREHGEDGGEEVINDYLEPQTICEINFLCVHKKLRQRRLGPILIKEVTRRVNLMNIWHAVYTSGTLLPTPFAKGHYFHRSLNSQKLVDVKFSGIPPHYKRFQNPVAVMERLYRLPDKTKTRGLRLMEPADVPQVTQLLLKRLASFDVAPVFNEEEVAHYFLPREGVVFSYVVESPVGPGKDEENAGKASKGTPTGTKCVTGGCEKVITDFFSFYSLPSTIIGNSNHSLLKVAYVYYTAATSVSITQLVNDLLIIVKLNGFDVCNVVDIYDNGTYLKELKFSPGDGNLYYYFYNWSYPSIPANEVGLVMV

Compound	IC50 [1] [µM]	ED50 (μM) T. brucei [2] [µM]
Cc1nn(C)c(C)c1N[S+](=O)([O-])c1c(Cl)cc(-c2cccc(C(N)=O)c2)cc1Cl [DDD73279]	1.1	2.1
Cc1nn(C)c(C)c1N[S+](=O)([O-])c1c(Cl)cc(-c2cc3ccccc3o2)cc1Cl [DDD73280]	20.7	>1
Cc1nn(C)c(C)c1N[S+](=O)([O-])c1ccc(NCc2cccc(N(C)C)c2)nc1 [DDD73320]	2.6	16.3
COc1cc(OC)cc(-c2cc(Cl)c([S+](=O)([O-])Nc3c(C)nn(C)c3C)c(Cl)c2)c1 [DDD73321]	4.3	>1
Cc1nn(C)c(C)c1N[S+](=O)([O-])c1ccc(NC(C)c2ccccc2)nc1 (stereo not shown) [DDD73322]	0.86	5.4
Cc1nn(C)c(C)c1N[S+](=O)([O-])c1ccc(NCc2ccc(Cl)c(Cl)c2)nc1 [DDD73325]	12.8	>1
Cc1nn(C)c(C)c1N[S+](=O)([O-])c1ccc(NCc2ccc3c(c2)OCO3)nc1 [DDD73326]	1.4	>1
Cc1nn(C)c(C)c1N[S+](=O)([O-])c1ccc(NCCCc2ccccc2)nc1 [DDD73327]	2.8	>1
COc1ccccc1CNc1ccc([S+](=O)([O-])Nc2c(C)nn(C)c2C)cn1 [DDD73328]	2.4	19.1
COc1cccc(CNc2ccc([S+](=O)([O-])Nc3c(C)nn(C)c3C)cn2)c1 [DDD73329]	1.6	>1
Cc1nn(C)c(C)c1N[S+](=O)([O-])c1ccc(NCC(O)c2ccccc2)nc1 (stereo not shown) [DDD73330]	2.3	>1
Cc1nn(C)c(C)c1N[S+](=O)([O-])c1ccc(N2Cc3ccccc3CC2CO)nc1 (stereo not shown) [DDD73331]	6	>1
Cc1nn(C)c(C)c1N[S+](=O)([O-])c1ccc(NCc2ccc3[nH]ccc3c2)nc1 [DDD73332]	0.34	3.2
Cc1nn(C)c(C)c1N[S+](=O)([O-])c1ccc(NC(CO)c2ccccc2)nc1 (stereo not shown) [DDD73333]	> 100	>1
Cc1nn(C)c(C)c1N[S+](=O)([O-])c1ccc(NCc2ccc(N3CCOCC3)cc2)nc1 [DDD73475]	0.88	10.5
Cc1nn(C)c(C)c1N[S+](=O)([O-])c1ccc(NCc2nc3ccccc3s2)nc1 [DDD73477]	0.46	6.0

Compound	IC50 [1] [µM]	ED50 (μM) T. brucei [2] [µM]
Cc1nn(C)c(C)c1N[S+](=O)([O-])c1ccc(NC2Cc3ccccc3C2)nc1 [DDD73478]	0.36	4.5
Cc1nn(C)c(C)c1N[S+](=O)([O-])c1c(Cl)cc(C#CC2CCCCC2)cc1Cl [DDD73479]	> 100	>1
Cc1nn(C)c(C)c1N[S+](=O)([O-])c1ccc(Nc2ccccc2)nc1 [DDD73480]	4.5	22.1
Cc1nn(C)c(C)c1N[S+](=O)([O-])c1ccc(N2CCC(c3ccccc3)CC2)nc1 [DDD73481]	6.9	>1
Cc1nn(C)c(C)c1N[S+](=O)([O-])c1ccc(NCCc2ccc(-c3ccccc3)cc2)nc1 [DDD73482]	60	>1
Cc1nn(C)c(C)c1N[S+](=O)([O-])c1ccc(Nc2ccc(Oc3ccccc3)cc2)nc1 [DDD73483]	> 100	>1
Cc1nn(C)c(C)c1N[S+](=O)([O-])c1c(Cl)cc(C#Cc2cncn2C)cc1Cl [DDD73484]	0.67	3.1
Cc1nn(C)c(C)c1N[S+](=O)([O-])c1c(Cl)cc(C#Cc2ccccc2)cc1Cl [DDD73485]	34.3	>1
Cc1nn(C)c(C)c1N[S+](=O)([O-])c1ccc(N[C@H](C)c2ccc3ccccc3c2)nc1 [DDD73486]	2.8	>1
Cc1nn(C)c(C)c1N[S+](=O)([O-])c1ccc(NCc2ccn(C)n2)nc1 [DDD73487]	1.2	14.2
Cc1nn(C)c(C)c1N[S+](=O)([O-])c1ccc(NCCc2ccc3ccccc3c2)nc1 [DDD73489]	12.4	>1
CCCn1nc(C)c(N[S+](=O)([O-])c2c(C)cc(OC)c(C)c2C)c1C [DDD73491]	28.4	>1
Cc1nn(C)c(C)c1N[S+](=O)([O-])c1ccc(NCC(c2ccccc2)c2ccccc2)nc1 [DDD73492]	13.6	>1
Cc1cnn(-c2ccc(CNc3ccc([S+](=O)([O-])Nc4c(C)nn(C)c4C)cn3)cc2)n1 [DDD73493]	4.4	>1
Cc1nn(C)c(C)c1N[S+](=O)([O-])c1ccc(NCc2ccc(-n3ccnc3C)cc2)nc1 [DDD73494]	0.71	8.8
Cc1nn(C)c(C)c1N[S+](=O)([O-])c1ccc(NCC(C)c2ccccc2)nc1 (stereo not shown) [DDD73495]	0.96	7.8
